In patent US12091426B2, “Bifunctional degraders of hematopoietic progenitor kinase and therapeutic uses thereof” (Nurix Therapeutics, Inc., priority 2021, dated 2024):

Target: T1, HPK1 (Homo sapiens, UniProt Q92918)
T1 construct: A HiBiT tag was introduced by CRISPR on the N terminus of HPK1 in Jurkat cells; host or cells: Jurkat cells (ATCC TIB-152), monoclonal line with CRISPR knock-in of HiBiT at the endogenous HPK1 locus
Assay: HPK1 Cellular HiBit Degradation Assay
Assay type: cell-based
Conditions: HiBiT HPK1 Jurkat cells, 24 hrs; for DC50: concentration at which 50% of HPK1 was remaining, read-out: DC50 Category; for Dmax: Jurkat, maximum degradation vs DMSO vehicle control, read-out: Dmax Category
In short: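 HiBiT-HPK1 Jurkat (CRISPR, N-term tag), 3×10^4 cells/well, RPMI 1640 + 10% FBS; CTMs 10 uM–0.1 nM, 11 pts; 24 hrs, 37° C/5% CO2; lytic HiBiT luminescence; % remaining vs DMSO, parental background subtracted; 4-parameter fit → DC50, Dmax.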

T1 sequence (Q92918 whole entry): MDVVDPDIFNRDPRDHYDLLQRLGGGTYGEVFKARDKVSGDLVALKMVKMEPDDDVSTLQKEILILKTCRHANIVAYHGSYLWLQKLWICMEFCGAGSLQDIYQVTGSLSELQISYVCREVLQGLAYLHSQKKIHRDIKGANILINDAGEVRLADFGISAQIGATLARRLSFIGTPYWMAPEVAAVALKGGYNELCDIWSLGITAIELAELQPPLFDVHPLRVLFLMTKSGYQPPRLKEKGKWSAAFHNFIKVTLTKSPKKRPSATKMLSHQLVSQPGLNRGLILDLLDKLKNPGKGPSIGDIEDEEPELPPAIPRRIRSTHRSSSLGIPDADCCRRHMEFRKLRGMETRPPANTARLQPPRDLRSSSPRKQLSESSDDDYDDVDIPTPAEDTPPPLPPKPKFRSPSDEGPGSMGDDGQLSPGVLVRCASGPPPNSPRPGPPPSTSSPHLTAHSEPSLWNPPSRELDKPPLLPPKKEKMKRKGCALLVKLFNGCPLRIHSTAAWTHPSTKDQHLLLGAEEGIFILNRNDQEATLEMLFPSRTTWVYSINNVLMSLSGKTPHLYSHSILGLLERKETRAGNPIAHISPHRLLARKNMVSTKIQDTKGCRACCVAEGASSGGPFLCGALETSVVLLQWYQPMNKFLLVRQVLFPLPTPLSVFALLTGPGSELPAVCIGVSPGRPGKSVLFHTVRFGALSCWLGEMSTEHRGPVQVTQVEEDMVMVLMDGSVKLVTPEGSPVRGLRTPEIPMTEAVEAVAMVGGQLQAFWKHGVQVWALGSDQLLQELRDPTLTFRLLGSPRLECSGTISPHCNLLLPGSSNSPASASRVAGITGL

Compound | DC50 [nM] | Dmax [%]
CC(C)n1cnc2cc(-c3ccc4c(c3)N([C@H]3C[C@@H](N5CCCCC5)C3)C(=O)C43CCN(C(=O)C4(C)CCN(C(=O)C5CCN(c6ccc7c(c6)C(=O)N(C6CCC(=O)NC6=O)C7=O)CC5)CC4)CC3)nc(NC3CC3)c21 (stereo partly drawn) [Example 121, 5-{4-[4-({6-[4-(cyclopropylamino)-3-(propan-2-yl)-3H-imidazo[4,5-c]pyridin-6-yl]-2-oxo-1-[(1s,3s)-3-(piperidin-1-yl)cyclobutyl]-1,2-dihydrospiro[indole-3,4′-piperidin]-1′-yl}carbonyl)-4-methylpiperidine-1-carbonyl]piperidin-1-yl}-2-(2,6-dioxopiperidin-3-yl)-2,3-dihydro-1H-isoindole-1,3-dione] | 500 to 1000 | 50 to 70
CC(C)n1cnc2cc(-c3ccc4c(c3)N([C@H]3C[C@@H](N5CCCCC5)C3)C(=O)C43CCN(C(=O)C4(C)CCN(C(=O)C5CCN(c6ccc7c(c6)C(=O)N(C6CCC(=O)NC6=O)C7=O)CC5)CC4)CC3)nc(Nc3ccccc3F)c21 (stereo partly drawn) [Example 122, 2-(2,6-dioxopiperidin-3-yl)-5-(4-{4-[(6-{4-[(2-fluorophenyl)amino]-3-(propan-2-yl)-3H-imidazo[4,5-c]pyridin-6-yl}-2-oxo-1-[(1S,3S)-3-(piperidin-1-yl)cyclobutyl]-1,2-dihydrospiro[indole-3,4′-piperidin]-1′-yl)carbonyl]-4-methylpiperidine-1-carbonyl}piperidin-1-yl)-2,3-dihydro-1H-isoindole-1,3-dione] | 100 to 500 | 70 to 85
CC(C)n1cnc2cc(-c3ccc4c(c3)N([C@H]3C[C@@H](N5CCCCC5)C3)C(=O)C43CCN(C(=O)C4(C)CCN(C(=O)C[C@H]5CCN(c6ccc(C7CCC(=O)NC7=O)cn6)C5)CC4)CC3)nc(NC3CC3)c21 (stereo partly drawn) [Example 154, 3-{6-[(3R)-3-{2-[4-({6-[4-(cyclopropylamino)-3-isopropylimidazo[4,5-c]pyridin-6-yl]-2-oxo-1-[(1S,3S)-3-(piperidin-1-yl)cyclobutyl]spiro[indole-3,4′-piperidin]-1′-yl}carbonyl)-4-methylpiperidin-1-yl]-2-oxoethyl}pyrrolidin-1-yl]pyridin-3-yl}piperidine-2,6-dione] | 100 to 500 | 50 to 70
CC(C)n1cnc2cc(-c3ccc4c(c3)N([C@H]3C[C@@H](N5CCCCC5)C3)C(=O)C43CCN(C(=O)[C@]4(C)CCN(C(=O)[C@H]5CC[C@H](Oc6ccc(C7CCC(=O)NC7=O)cn6)CC5)C4)CC3)nc(NC3CC3)c21 (stereo partly drawn) [Example 163, 3-(6-(((1R,4R)-4-((R)-3-(6-(4-(cyclopropylamino)-3-isopropyl-3H-imidazo[4,5-c]pyridin-6-yl)-2-oxo-1-((1S,3S)-3-(piperidin-1-yl)cyclobutyl)spiro[indoline-3,4′-piperidine]-1′-carbonyl)-3-methylpyrrolidine-1-carbonyl)cyclohexyl)oxy)pyridin-3-yl)piperidine-2,6-dione] | 100 to 500 | > 85
CC(C)n1cnc2cc(-c3ccc4c(c3)N([C@H]3C[C@@H](N5CCCCC5)C3)C(=O)C43CCN(C(=O)C4(C)CCN(C(=O)C5CCN(c6ccc(C7CCC(=O)NC7=O)cn6)CC5)CC4)CC3)nc(Oc3ccccc3F)c21 (stereo partly drawn) [Example 164, 3-(6-{4-[4-({6-[4-(2-fluorophenoxy)-3-(propan-2-yl)-3H-imidazo[4,5-c]pyridin-6-yl]-2-oxo-1-[(1S,3S)-3-(piperidin-1-yl)cyclobutyl]-1,2-dihydrospiro[indole-3,4′-piperidin]-1′-yl}carbonyl)-4-methylpiperidine-1-carbonyl]piperidin-1-yl}pyridin-3-yl)piperidine-2,6-dione] | 100 to 500 | > 85
CC(C)n1cnc2cc(-c3ccc4c(c3)N([C@H]3C[C@@H](N5CCCCC5)C3)C(=O)C43CCN(C(=O)C4(C)CCN(C(=O)C5CCN(c6ccc([C@@H]7CCC(=O)NC7=O)cn6)CC5)CC4)CC3)nc(OC3CCOCC3)c21 [Example 165, 3-(6-{4-[4-methyl-4-({6-[4-(oxan-4-yloxy)-3-(propan-2-yl)-3H-imidazo[4,5-c]pyridin-6-yl]-2-oxo-1-[(1S,3S)-3-(piperidin-1-yl)cyclobutyl]-1,2-dihydrospiro[indole-3,4′-piperidin]-1′-yl}carbonyl)piperidine-1-carbonyl]piperidin-1-yl}pyridin-3-yl)piperidine-2,6-dione] | < 100 | 70 to 85
CC(C)Nc1nc(-c2ccc3c(c2)N([C@H]2C[C@@H](N4CCCCC4)C2)C(=O)C32CCN(C(=O)C3(C)CCN(C(=O)C4CCN(c5ccc(C6CCC(=O)NC6=O)cn5)CC4)CC3)CC2)cc2ncn(C(C)C)c12 (stereo partly drawn) [Example 166] | < 100 | > 85
CC(C)n1cnc2cc(-c3ccc4c(c3)N([C@H]3C[C@@H](N5CCCCC5)C3)C(=O)C43CCN(C(=O)C4CCN(C(=O)CC5CCN(c6ccc(C7CCC(=O)NC7=O)cn6)CC5)CC4)CC3)nc(Oc3ccccc3F)c21 (stereo partly drawn) [Example 167, 3-[6-(4-{2-[4-({6-[4-(2-fluorophenoxy)-3-(propan-2-yl)-3H-imidazo[4,5-c]pyridin-6-yl]-2-oxo-1-[(1S,3S)-3-(piperidin-1-yl)cyclobutyl]-1,2-dihydrospiro[indole-3,4′-piperidin]-1′-yl}carbonyl)piperidin-1-yl]-2-oxoethyl}piperidin-1-yl)pyridin-3-yl]piperidine-2,6-dione] | < 100 | 70 to 85
CC(C)n1cnc2cc(-c3ccc4c(c3)N([C@H]3C[C@@H](N5CCCCC5)C3)C(=O)C43CCN(C(=O)C4(C)CCN(C(=O)C5CCN(c6ccc(C7CCC(=O)NC7=O)cn6)CC5)CC4)CC3)nc(Oc3ccccc3)c21 (stereo partly drawn) [Example 168, 3-(6-{4-[4-methyl-4-({2-oxo-6-[4-phenoxy-3-(propan-2-yl)-3H-imidazo[4,5-c]pyridin-6-yl]-1-[(1S,3S)-3-(piperidin-1-yl)cyclobutyl]-1,2-dihydrospiro[indole-3,4′-piperidin]-1′-yl}carbonyl)piperidine-1-carbonyl]piperidin-1-yl}pyridin-3-yl)piperidine-2,6-dione] | < 100 | > 85

Further lines, results first:

DC50 [nM] | Dmax [%] | Compound
< 100 | > 85 | CC(C)n1cnc2cc(-c3ccc4c(c3)N([C@H]3C[C@@H](N5CCCCC5)C3)C(=O)C43CCN(C(=O)C4(C)CCN(C(=O)C5CCN(c6ccc(N7CCC(=O)NC7=O)cn6)CC5)CC4)CC3)nc(Nc3ccccc3F)c21 [Example 116, 1-[6-(4-{4-[(6-{4-[(2-fluorophenyl)amino]-3-(propan-2-yl)-3H-imidazo[4,5-c]pyridin-6-yl}-2-oxo-1-[(1S,3S)-3-(piperidin-1-yl)cyclobutyl]-1,2-dihydrospiro[indole-3,4′-piperidin]-1′-yl)carbonyl]-4-methylpiperidine-1-carbonyl}piperidin-1-yl)pyridin-3-yl]-1,3-diazinane-2,4-dione]
< 100 | > 85 | CC(C)n1cnc2cc(-c3ccc4c(c3)N([C@H]3C[C@@H](N5CCCCC5)C3)C(=O)C43CCN(C(=O)C4(C)CCN(C(=O)C5CCN(c6ccc(N7CCC(=O)NC7=O)cn6)CC5)CC4)CC3)nc(Nc3ccncc3F)c21 [Example 117, 1-[6-(4-{4-[(6-{4-[(3-fluoropyridin-4-yl)amino]-3-(propan-2-yl)-3H-imidazo[4,5-c]pyridin-6-yl}-2-oxo-1-[(1S,3S)-3-(piperidin-1-yl)cyclobutyl]-1,2-dihydrospiro[indole-3,4′-piperidin]-1′-yl)carbonyl]-4-methylpiperidine-1-carbonyl}piperidin-1-yl)pyridin-3-yl]-1,3-diazinane-2,4-dione]
< 100 | 70 to 85 | CC(C)n1cnc2cc(-c3ccc4c(c3)N([C@H]3C[C@@H](N5CCCCC5)C3)C(=O)C43CCN(C(=O)C4(C)CCN(C(=O)C5CCN(c6ccc(N7CCC(=O)NC7=O)cn6)CC5(F)F)CC4)CC3)nc(NC3CC3)c21 (stereo partly drawn) [Example 153, 1-(6-{4-[4-({6-[4-(cyclopropylamino)-3-isopropylimidazo[4,5-c]pyridin-6-yl]-2-oxo-1-[(1S,3S)-3-(piperidin-1-yl)cyclobutyl]spiro[indole-3,4′-piperidin]-1′-yl}carbonyl)-4-methylpiperidine-1-carbonyl]-3,3-difluoropiperidin-1-yl}pyridin-3-yl)-1,3-diazinane-2,4-dione]
< 100 | 70 to 85 | CC(C)n1cnc2cc(-c3ccc4c(c3)N([C@H]3C[C@@H](N5CCCCC5)C3)C(=O)C43CCN(C(=O)C4(C)CCN(C(=O)C5C6CCC5CN(c5ccc(N7CCC(=O)NC7=O)cn5)C6)CC4)CC3)nc(NC3CC3)c21 (stereo partly drawn) [Example 155]
< 100 | 70 to 85 | CC(C)n1cnc2cc(-c3ccc4c(c3)N([C@H]3C[C@@H](N5CCCCC5)C3)C(=O)C43CCN(C(=O)[C@@H]4CCN(C(=O)C5CCN(c6ncc(C7CCC(=O)NC7=O)cn6)CC5)C4)CC3)nc(Nc3ccccc3F)c21 (stereo partly drawn) [Example 158, 3-(2-(4-((R)-3-(6-(4-((2-fluorophenyl)amino)-3-isopropyl-3H-imidazo[4,5-c]pyridin-6-yl)-2-oxo-1-((1S,3S)-3-(piperidin-1-yl)cyclobutyl)spiro[indoline-3,4′-piperidine]-1′-carbonyl)pyrrolidine-1-carbonyl)piperidin-1-yl)pyrimidin-5-yl)piperidine-2,6-dione]
< 100 | > 85 | CC(C)n1cnc2cc(-c3ccc4c(c3)N([C@H]3C[C@@H](N5CCCCC5)C3)C(=O)C43CCN(C(=O)CC4CCN(C(=O)[C@H]5CC[C@H](Oc6ccc(C7CCC(=O)NC7=O)cn6)CC5)CC4)CC3)nc(NC3CC3)c21 (stereo partly drawn) [Example 161, 3-(6-{[(1R,4R)-4-[4-(2-{6-[4-(cyclopropylamino)-3-(propan-2-yl)-3H-imidazo[4,5-c]pyridin-6-yl]-2-oxo-1-[(1S,3S)-3-(piperidin-1-yl)cyclobutyl]-1,2-dihydrospiro[indole-3,4′-piperidin]-1′-yl}-2-oxoethyl)piperidine-1-carbonyl]cyclohexyl]oxy}pyridin-3-yl)piperidine-2,6-dione]
